Legend:
786-0 = assay: NCI cytotoxicity (SRB, 48 h), 786-0; type: cell-based, human; conditions: 786-0, renal
Method: (§1) The C8-linked quinazolinone-PBD hybrid (5d) has been tested against sixty human tumour cell lines derived from nine cancer types (leukemia, non-small cell lung cancer, colon cancer, CNS cancer, melanoma, ovarian cancer, renal cancer, prostate cancer and breast cancer) as per NCI protocol. For each compound, dose response curves for individual cell lines have been measured at a minimum of five concentrations at 10 fold dilutions. A protocol of 48 h continuous drug exposure has been used, and a sulforhodamine B (SRB) protein assay was used to estimate cell viability or growth. The concentration for 50% cell growth inhibition (GI50), total cell growth inhibition (TGI, 0% growth) and 50% cell death (LC50, […]) compared with the control has been calculated (Table-1). Compound 5d has been evaluated for their in vitro cytotoxicity in sixty cell lines from nine human cancer types of lung (Hop-62, NCI-H226, NCI-H522), leukemia (K-562, SR), colon (HCT-116, HCT-15, HCC-2998), CNS(SF-539), melanoma (SK-MEL-5, UACC-62, M14), ovarian (IGROV1), renal (A498), prostate (PC3) breast (BT-549, MDA-MB-435, HS578T) origin. The results are expressed as percent of cell growth determined relative to that of untreated control cells (Table 2). The representative compound 5d has shown significant cytotoxicity against some cancer cell lines.

SN12C = assay: NCI cytotoxicity (SRB, 48 h), SN12C; type: cell-based, human; conditions: renal
Method: as §1

CNS cancer cell lines = assay: NCI cytotoxicity (SRB, 48 h), CNS panel; type: cell-based, human; conditions: CNS panel average
Method: as §1

NCI/ADR-RES = assay: NCI cytotoxicity (SRB, 48 h), NCI/ADR-RES; type: cell-based, human; conditions: breast
Method: as §1

CCRF-CEM = assay: NCI cytotoxicity (SRB, 48 h), CCRF-CEM; type: cell-based, human; conditions: leukemia
Method: as §1

OVCAR-5 = assay: NCI cytotoxicity (SRB, 48 h), OVCAR-5; type: cell-based, human; conditions: OVCAR-5, ovarian
Method: as §1

EKVX = assay: NCI cytotoxicity (SRB, 48 h), EKVX; type: cell-based, human; conditions: non-small cell lung
Method: as §1

[1] = system: duplex-form calf thymus DNA (CT-DNA); assay: Thermal denaturation studies with calf thymus DNA; type: binding; conditions: [PBD]:[DNA] molar ratio 1:5, CT-DNA 100 μM, ligand 20 μM, pH 7.00
Method: Compounds have been subjected to thermal denaturation studies with duplex-form calf thymus DNA (CT-DNA) using a modification of a reported procedure. Working solutions in aqueous buffer ([…] NaH2PO4/Na2HPO4, 1 mM Na2EDTA, pH 7.00+0.01). containing CT-DNA (100 μm in phosphate) and the PBD (20 μm) have been prepared by addition of concentrated PBD solutions in DMSO to obtain a fixed [PBD]/[DNA] molar ratio of 1:5. The DNA-PBD solutions have been incubated at 37° C. for 0 and 18 hrs prior to analysis. Samples have been monitored at 260 nm using a Beckman DU-800 spectrophotometer fitted with high performance temperature controller, and heated at 1° C. min^−1 in the 40-110° C. range. DNA helix→coil transition temperatures (Tm) have been obtained from the maxima in the d(A260)/dT derivative plots. Drug-induced alterations in DNA melting behavior are given by: ΔTm=Tm(DNA+PBD)−Tm(DNA alone), where the Tm value for the PBD-free CT-DNA is 68.5±0.01.
The DNA-binding for these novel C8-linked quinazolinone-PBD hybrids has been examined by thermal denaturation studies using calf thymus (CT) DNA. […] Data for 5b, 5c, 5d, and 5k, 5l, 5m and DC-81 are included in Table 5 for comparison.

HCC-2998 = assay: NCI cytotoxicity (SRB, 48 h), HCC-2998; type: cell-based, human; conditions: HCC-2998, colon
Method: as §1

OVCAR-8 = assay: NCI cytotoxicity (SRB, 48 h), OVCAR-8; type: cell-based, human; conditions: OVCAR-8, ovarian
Method: as §1

SK-MEL-28 = assay: NCI cytotoxicity (SRB, 48 h), SK-MEL-28; type: cell-based, human; conditions: SK-MEL-28, melanoma
Method: as §1

Colon cancer cell lines = assay: NCI cytotoxicity (SRB, 48 h), colon panel; type: cell-based, human; conditions: Colon panel average
Method: as §1

A549/ATCC = assay: NCI cytotoxicity (SRB, 48 h), A549/ATCC; type: cell-based, human; conditions: non-small cell lung
Method: as §1

[2] = system: Prostate cancer cell lines; assay: NCI cytotoxicity (SRB, 48 h), prostate panel; type: cell-based, human; conditions: Prostate panel average
Method: as §1

HT29 = assay: NCI cytotoxicity (SRB, 48 h), HT29; type: cell-based, human; conditions: HT29, colon
Method: as §1

Melanoma cell lines = assay: NCI cytotoxicity (SRB, 48 h), melanoma panel; type: cell-based, human; conditions: Melanoma panel average
Method: as §1

SR = assay: NCI cytotoxicity (SRB, 48 h), SR; type: cell-based, human; conditions: leukemia
Method: as §1

SF-268 = assay: NCI cytotoxicity (SRB, 48 h), SF-268; type: cell-based, human; conditions: SF-268, CNS
Method: as §1

Renal cancer cell lines = assay: NCI cytotoxicity (SRB, 48 h), renal panel; type: cell-based, human; conditions: Renal panel average
Method: as §1

NCI-H322M = assay: NCI cytotoxicity (SRB, 48 h), NCI-H322M; type: cell-based, human; conditions: non-small cell lung
Method: as §1

NCI-H522 = assay: NCI cytotoxicity (SRB, 48 h), NCI-H522; type: cell-based, human; conditions: NCI-H522, non-small cell lung
Method: as §1

RXF 393 = assay: NCI cytotoxicity (SRB, 48 h), RXF 393; type: cell-based, human; conditions: RXF 393, renal
Method: as §1

PC-3 = assay: NCI cytotoxicity (SRB, 48 h), PC-3; type: cell-based, human; conditions: PC-3, prostate
Method: as §1

MOLT-4 = assay: NCI cytotoxicity (SRB, 48 h), MOLT-4; type: cell-based, human; conditions: MOLT-4, leukemia
Method: as §1

CAKI-1 = assay: NCI cytotoxicity (SRB, 48 h), CAKI-1; type: cell-based, human; conditions: CAKI-1, renal
Method: as §1

HCT-15 = assay: NCI cytotoxicity (SRB, 48 h), HCT-15; type: cell-based, human; conditions: HCT-15, colon
Method: as §1

UACC-257 = assay: NCI cytotoxicity (SRB, 48 h), UACC-257; type: cell-based, human; conditions: UACC-257, melanoma
Method: as §1

SNB-19 = assay: NCI cytotoxicity (SRB, 48 h), SNB-19; type: cell-based, human; conditions: SNB-19, CNS
Method: as §1

Breast cancer cell lines = assay: NCI cytotoxicity (SRB, 48 h), breast panel; type: cell-based, human; conditions: Breast panel average
Method: as §1

Q: How did the GI50 (786-0) turn out when `COc1cc2c(cc1OCCCCCOc1ccc(-n3c(C)nc4ccccc4c3=O)cc1)N=C[C@@H]1CCCN1C2=O` [5d, 7-methoxy-8-{5-[4-(2-methyl-4-oxo-3,4-dihydro-3-quinazolinyl)phenoxy]pentyloxy-}-(11aS)-1,2,3,11a-tetrahydro-5H-pyrrolo[2,1-c][1,4]benzodiazepine-5-one] was run?
A: 170 nM

Q: And the GI50 (SN12C)?
A: 240 nM

Q: And the “Log10 GI50” value (CNS cancer cell lines)?
A: −6.59 mol/L

Q: What about the “Log10 LC50” value (CNS cancer cell lines) of the same molecule?
A: −4.88

Q: What about the GI50 (NCI/ADR-RES) of the same molecule?
A: 1730 nM

Q: And the GI50 (CCRF-CEM)?
A: 160 nM

Q: What about the GI50 (OVCAR-5) of the same molecule?
A: 330 nM

Q: And the GI50 (EKVX)?
A: 870 nM

Q: And the “ΔTm after incubation at 37° C. for 0 h” value ([1]; 0 h)?
A: 1.1 °C

Q: And the “ΔTm after incubation at 37° C. for 18 h” value ([1]; 18 h)?
A: 2.3 °C

Q: And the GI50 (HCC-2998)?
A: 260 nM

Q: And the GI50 (OVCAR-8)?
A: 340 nM

Q: What about the GI50 (SK-MEL-28) of the same molecule?
A: 200 nM

Q: And the “Log10 GI50” value (Colon cancer cell lines)?
A: −6.59 mol/L

Q: What about the “Log10 LC50” value (Colon cancer cell lines) of the same molecule?
A: −5.49

Q: What about the GI50 (A549/ATCC) of the same molecule?
A: 230 nM

Q: What about the “Log10 GI50” value [2] of the same molecule?
A: −6.55 mol/L

Q: What about the “Log10 LC50” value [2] of the same molecule?
A: −5.19

Q: And the GI50 (HT29)?
A: 260 nM

Q: What about the “Log10 GI50” value (Melanoma cell lines) of the same molecule?
A: −6.65 mol/L

Q: What about the “Log10 LC50” value (Melanoma cell lines) of the same molecule?
A: −5.90

Q: What about the GI50 (SR) of the same molecule?
A: 110 nM

Q: And the GI50 (SF-268)?
A: 260 nM

Q: And the “Log10 GI50” value (Renal cancer cell lines)?
A: −6.62 mol/L

Q: What about the “Log10 LC50” value (Renal cancer cell lines) of the same molecule?
A: −5.09

Q: And the GI50 (NCI-H322M)?
A: 260 nM

Q: What about the GI50 (NCI-H522) of the same molecule?
A: 120 nM

Q: What about the GI50 (RXF 393) of the same molecule?
A: 210 nM

Q: What about the GI50 (PC-3) of the same molecule?
A: 290 nM

Q: And the GI50 (MOLT-4)?
A: 190 nM

Q: And the GI50 (CAKI-1)?
A: 190 nM

Q: What about the GI50 (HCT-15) of the same molecule?
A: 1090 nM

Q: What about the GI50 (UACC-257) of the same molecule?
A: 390 nM

Q: What about the GI50 (SNB-19) of the same molecule?
A: 280 nM

Q: What about the “Log10 GI50” value (Breast cancer cell lines) of the same molecule?
A: −6.66 mol/L

Q: What about the “Log10 LC50” value (Breast cancer cell lines) of the same molecule?
A: −4.90

— patent publication US8691811B2, “Quinazolinone linked pyrrolo[2,1-c][1,4]benzodiazepine hybrids as potential anticancer agents and process for the preparation thereof” (Council of Scientific & Industrial Research, priority 2008, dated 2014)
